Assay results as given in patent US20180030500A1, “ENRICHMENT AND SELECTIVE CULTURE OF MYCOBACTERIA” (priority 2015, published 2018).
Where two headings read alike, the source gives them in different places.

Columns and labels:
Mycobacteria = details: 20 strains, 7 days
Pseudomonas aeruginosa = details: 50 strains, 7 days
Enterobacteria = details: 7 strains, 7 days
Gram-positive bacteria = details: 10 strains, 7 days
Fungi/yeasts = details: 8 strains, 7 days
[1] = selective agent 400 mg/l in medium L
[2] = selective agent 800 mg/l in medium L
[3] = selective agent 1600 mg/l in medium L
[4] = selective agent 32 mg/l in medium L
[5] = selective agent 64 mg/l in medium L
[6] = selective agent 128 mg/l in medium L
[7] = selective agent 2.5 mg/l in medium L
[8] = selective agent 5 mg/l in medium L
[9] = selective agent 10 mg/l in medium L
[10] = selective agent 5.0 mg/l in medium L
[11] = selective agent 0.125 mg/l in medium L
[12] = selective agent 0.25 mg/l in medium L
[13] = selective agent 0.5 mg/l in medium L
[14] = selective agent 20 mg/l in medium L
[15] = selective agent 16 mg/l in medium L

## C[C@@H]1O[C@@H]1P(=O)(O)O [fosfomycin]
Mycobacteria; [1]
  Number of strains having shown growth: 20
  Percentage of strains having shown growth: (100%)
Mycobacteria; [2]
  Number of strains having shown growth: 20
  Percentage of strains having shown growth: (100%)
Mycobacteria; [3]
  Number of strains having shown growth: 20
  Percentage of strains having shown growth: (100%)
Pseudomonas aeruginosa; [1]
  Number of strains having shown growth: 15
  Percentage of strains having shown growth: (30%)
Pseudomonas aeruginosa; [2]
  Number of strains having shown growth: 8
  Percentage of strains having shown growth: (16%)
Pseudomonas aeruginosa; [3]
  Number of strains having shown growth: 6
  Percentage of strains having shown growth: (12%)
Enterobacteria; [1]
  Number of strains having shown growth: 3
  Percentage of strains having shown growth: (43%)
Enterobacteria; [2]
  Number of strains having shown growth: 2
  Percentage of strains having shown growth: (29%)
Enterobacteria; [3]
  Number of strains having shown growth: 2
  Percentage of strains having shown growth: (29%)
Gram-positive bacteria; [1]
  Number of strains having shown growth: 0
Gram-positive bacteria; [2]
  Number of strains having shown growth: 0
Gram-positive bacteria; [3]
  Number of strains having shown growth: 0

## colistin methanesulfonate
Mycobacteria; [4]
  Number of strains having shown growth: 20
  Percentage of strains having shown growth: (100%)
Mycobacteria; [5]
  Number of strains having shown growth: 20
  Percentage of strains having shown growth: (100%)
Mycobacteria; [6]
  Number of strains having shown growth: 20
  Percentage of strains having shown growth: (100%)
Pseudomonas aeruginosa; [4]
  Number of strains having shown growth: 5
  Percentage of strains having shown growth: (10%)
Pseudomonas aeruginosa; [5]
  Number of strains having shown growth: 5
  Percentage of strains having shown growth: (10%)
Pseudomonas aeruginosa; [6]
  Number of strains having shown growth: 5
  Percentage of strains having shown growth: (10%)
Enterobacteria; [4]
  Number of strains having shown growth: 3
  Percentage of strains having shown growth: (43%)
Enterobacteria; [5]
  Number of strains having shown growth: 3
  Percentage of strains having shown growth: (43%)
Enterobacteria; [6]
  Number of strains having shown growth: 3
  Percentage of strains having shown growth: (43%)
Gram-positive bacteria; [4]
  Number of strains having shown growth: 7
  Percentage of strains having shown growth: (70%)
Gram-positive bacteria; [5]
  Number of strains having shown growth: 6
  Percentage of strains having shown growth: (60%)
Gram-positive bacteria; [6]
  Number of strains having shown growth: 5
  Percentage of strains having shown growth: (50%)

## CN[C@H](CC(C)C)C(=O)N[C@H]1C(=O)N[C@@H](CC(N)=O)C(=O)N[C@H]2C(=O)N[C@H]3C(=O)N[C@H](C(=O)N[C@H](C(=O)O)c4cc(O)cc(O)c4-c4cc3ccc4O)[C@H](O)c3ccc(c(Cl)c3)Oc3cc2cc(c3O[C@@H]2O[C@H](CO)[C@@H](O)[C@H](O)[C@H]2O[C@H]2C[C@](C)(N)[C@H](O)[C@H](C)O2)Oc2ccc(cc2Cl)[C@H]1O [vancomycin]
Mycobacteria; [7]
  Number of strains having shown growth: 19
  Percentage of strains having shown growth: (95%)
Mycobacteria; [8]
  Number of strains having shown growth: 19
  Percentage of strains having shown growth: (95%)
Mycobacteria; [9]
  Number of strains having shown growth: 19
  Percentage of strains having shown growth: (95%)
Pseudomonas aeruginosa; [7]
  Number of strains having shown growth: 50
  Percentage of strains having shown growth: (100%)
Pseudomonas aeruginosa; [10]
  Number of strains having shown growth: 50
  Percentage of strains having shown growth: (100%)
Pseudomonas aeruginosa; [9]
  Number of strains having shown growth: 50
  Percentage of strains having shown growth: (100%)
Enterobacteria; [7]
  Number of strains having shown growth: 7
  Percentage of strains having shown growth: (100%)
Enterobacteria; [10]
  Number of strains having shown growth: 7
  Percentage of strains having shown growth: (100%)
Enterobacteria; [9]
  Number of strains having shown growth: 7
  Percentage of strains having shown growth: (100%)
Gram-positive bacteria; [7]
  Number of strains having shown growth: 0
Gram-positive bacteria; [10]
  Number of strains having shown growth: 0
Gram-positive bacteria; [9]
  Number of strains having shown growth: 0

## CN(C)c1ccc(C(=C2C=CC(=[N+](C)C)C=C2)c2ccccc2)cc1 [malachite green]
Mycobacteria; [11]
  Number of strains having shown growth: 16
  Percentage of strains having shown growth: (80%)
Mycobacteria; [12]
  Number of strains having shown growth: 20
  Percentage of strains having shown growth: (100%)
Mycobacteria; [13]
  Number of strains having shown growth: 20
  Percentage of strains having shown growth: (100%)
Pseudomonas aeruginosa; [11]
  Number of strains having shown growth: 50
  Percentage of strains having shown growth: (100%)
Pseudomonas aeruginosa; [12]
  Number of strains having shown growth: 50
  Percentage of strains having shown growth: (100%)
Pseudomonas aeruginosa; [13]
  Number of strains having shown growth: 50
  Percentage of strains having shown growth: (100%)
Enterobacteria; [11]
  Number of strains having shown growth: 7
  Percentage of strains having shown growth: (100%)
Enterobacteria; [12]
  Number of strains having shown growth: 7
  Percentage of strains having shown growth: (100%)
Enterobacteria; [13]
  Number of strains having shown growth: 7
  Percentage of strains having shown growth: (100%)
Gram-positive bacteria; [11]
  Number of strains having shown growth: 10
  Percentage of strains having shown growth: (100%)
Gram-positive bacteria; [12]
  Number of strains having shown growth: 10
  Percentage of strains having shown growth: (100%)
Gram-positive bacteria; [13]
  Number of strains having shown growth: 9
  Percentage of strains having shown growth: (90%)

## C[C@@H]1[C@H](O)[C@@H](C)/C=C/C=C/C=C/C=C/C=C/C=C/C=C/[C@H](O[C@@H]2O[C@H](C)[C@@H](O)[C@H](N)[C@@H]2O)C[C@@H]2O[C@](O)(C[C@@H](O)C[C@@H](O)[C@H](O)CC[C@@H](O)C[C@@H](O)CC(=O)O[C@H]1C)C[C@H](O)[C@H]2C(=O)O [amphotericin B]
Mycobacteria; [8]
  Number of strains having shown growth: 20
  Percentage of strains having shown growth: (100%)
Mycobacteria; [9]
  Number of strains having shown growth: 20
  Percentage of strains having shown growth: (100%)
Mycobacteria; [14]
  Number of strains having shown growth: 20
  Percentage of strains having shown growth: (100%)
Fungi/yeasts; [8]
  Number of strains having shown growth: 6
  Percentage of strains having shown growth: (75%)
Fungi/yeasts; [9]
  Number of strains having shown growth: 4
  Percentage of strains having shown growth: (50%)
Fungi/yeasts; [14]
  Number of strains having shown growth: 3
  Percentage of strains having shown growth: (37.5%)

## CCn1cc(C(=O)O)c(=O)c2ccc(C)nc21 [nalidixic acid]
Mycobacteria; [15]
  Number of strains having shown growth: 20
  Percentage of strains having shown growth: (100%)
Mycobacteria; [4]
  Number of strains having shown growth: 20
  Percentage of strains having shown growth: (100%)
Mycobacteria; [5]
  Number of strains having shown growth: 20
  Percentage of strains having shown growth: (100%)
Pseudomonas aeruginosa; [15]
  Number of strains having shown growth: 50
  Percentage of strains having shown growth: (100%)
Pseudomonas aeruginosa; [4]
  Number of strains having shown growth: 43
  Percentage of strains having shown growth: (86%)
Pseudomonas aeruginosa; [5]
  Number of strains having shown growth: 35
  Percentage of strains having shown growth: (70%)
Enterobacteria; [15]
  Number of strains having shown growth: 4
  Percentage of strains having shown growth: (57%)
Enterobacteria; [4]
  Number of strains having shown growth: 0
Enterobacteria; [5]
  Number of strains having shown growth: 0
Gram-positive bacteria; [15]
  Number of strains having shown growth: 9
  Percentage of strains having shown growth: (90%)
Gram-positive bacteria; [4]
  Number of strains having shown growth: 8
  Percentage of strains having shown growth: (80%)
Gram-positive bacteria; [5]
  Number of strains having shown growth: 7
  Percentage of strains having shown growth: (70%)
